Here are results for three molecules from ChEMBL document CHEMBL1177668, “(-)-N-Formylanonaine from Michelia alba as a human tyrosinase inhibitor and antioxidant” (Bioorg Med Chem, 2010).

Each structure is given as a SMILES string. pEC50, pIC50: −log10 of the molar value. Active and inactive are the calls of the source. The rule behind the calls is not given here.

For series [1], the system named is Radical scavenging activity.
Description: Antioxidant activity assessed as DPPH free radical scavenging activity after 30 mins
Series [2] deals with T1, Tyrosinase (Homo sapiens) (UniProt P14679).
T1 sequence (whole entry): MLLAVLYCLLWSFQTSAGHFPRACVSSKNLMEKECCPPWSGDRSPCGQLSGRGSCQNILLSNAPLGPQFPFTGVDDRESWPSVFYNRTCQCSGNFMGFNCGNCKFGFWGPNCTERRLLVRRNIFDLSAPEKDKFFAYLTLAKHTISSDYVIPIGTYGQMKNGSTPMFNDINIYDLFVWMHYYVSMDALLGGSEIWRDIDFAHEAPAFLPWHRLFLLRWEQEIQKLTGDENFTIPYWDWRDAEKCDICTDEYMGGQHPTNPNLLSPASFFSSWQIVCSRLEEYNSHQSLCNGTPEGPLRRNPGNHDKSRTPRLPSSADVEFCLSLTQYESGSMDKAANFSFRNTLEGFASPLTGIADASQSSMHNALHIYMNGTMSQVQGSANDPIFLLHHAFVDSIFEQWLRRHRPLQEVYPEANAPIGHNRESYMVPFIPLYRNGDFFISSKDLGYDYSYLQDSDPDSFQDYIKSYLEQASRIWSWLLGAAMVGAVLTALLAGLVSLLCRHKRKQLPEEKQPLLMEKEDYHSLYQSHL
The series can be described thus: Inhibition of tyrosinase in human HEMn-MP assessed as oxidation of L-DOPA to dopaquinone at 100 uM after 2 days by spectrophotometric analysis.

Series [3] has as its target T2, Tyrosinase (Homo sapiens, UniProt P14679).
T2 sequence (P14679 whole entry): T1 sequence (whole entry)
The series can be described thus: Inhibition of tyrosinase in human HEMn-MP assessed as reduction of melanin level after 2 days by spectrophotometric analysis.

Series [4] can be described thus: Cytotoxicity against human HEMn-MP after 48 hrs by MTT assay. As to conditions: HEMn-MP cells.
Series [5] in a line: Cytotoxicity against human keratinocytes after 48 hrs by MTT assay. In kind it is cell-based, Keratinocyte. (Tetrazolium assays rely on reduction of a dye to a coloured formazan, in cell work by metabolically active cells.)
A short description of series [6]: Cytotoxicity against human fibroblasts after 48 hrs by MTT assay. In kind it is cell-based, Fibroblast.
The nature of series [7]: Cytotoxicity against human HEMn-MP assessed as cell viability at 0.01 to 10 uM after 48 hrs by MTT assay. The note with it: HEMn-MP cells, read-out: Activity.
Series [8] is described as follows: Cytotoxicity against human HEMn-MP assessed as cell viability at 200 uM after 48 hrs by MTT assay.
A short description of series [9]: Cytotoxicity against human HEMn-MP assessed as cell death at 100 uM after 48 hrs by MTT assay.
The species named for series [10] is Homo sapiens. The series can be described thus: Induction of dendritic to bipolar morphology changes in human HEMn-MP at 100 uM after 48 hrs by phase contrast microscopic analysis. In kind it is functional.
The species named for series [11] is Homo sapiens. Put plainly: Induction of dendritic to bipolar morphology changes in human HEMn-MP at 10 uM after 12 to 60 hrs by phase contrast microscopic analysis. It counts as functional.
The species named for series [12] is Homo sapiens. Put plainly: Induction of dendritic to bipolar morphology changes in human HEMn-MP at 200 uM after 12 to 60 hrs by phase contrast microscopic analysis. In kind it is functional.
The species entered for series [13] is Homo sapiens. Put plainly: Reduction of melanin production in human HEMn-MP at 10 uM after 12 to 60 hrs by phase contrast microscopic analysis. In kind it is functional.
For series [14], the species on record is Homo sapiens. The series can be described thus: Reduction of melanin production in human HEMn-MP at 200 uM after 12 to 60 hrs by phase contrast microscopic analysis. It counts as functional.
Series [15] in a line: Cytotoxicity against human HEMn-MP assessed as cell death at 10 to 200 uM after 2 to 60 hrs by phase contrast microscopic analysis.
Series [16] is described as follows: Cytotoxicity against human fibroblasts assessed as cell viability at 100 uM after 48 hrs by MTT assay. In kind it is cell-based, Fibroblast. As to conditions: read-out: Activity.
In series [17] the test system is Fibroblast. Put plainly: Cytotoxicity against human fibroblasts assessed as cell viability at 200 uM after 48 hrs by MTT assay. In kind it is cell-based.
Series [18] can be described thus: Cytotoxicity against human keratinocytes assessed as cell viability at 10 uM after 48 hrs by MTT assay. In kind it is cell-based. The note with it: keratinocyte.
For series [19], the system named is Fibroblast. Put plainly: Cytotoxicity against human fibroblasts assessed as cell viability at 10 uM after 48 hrs by MTT assay. It counts as cell-based.
Series [20] in a line: Antioxidant activity assessed as potassium ferric cyanide ion reducing power at 100 uM after 20 mins. It counts as functional.
For series [21], the target named is T3, Tyrosinase (Agaricus bisporus, UniProt O42713).
T3 sequence (O42713 whole entry): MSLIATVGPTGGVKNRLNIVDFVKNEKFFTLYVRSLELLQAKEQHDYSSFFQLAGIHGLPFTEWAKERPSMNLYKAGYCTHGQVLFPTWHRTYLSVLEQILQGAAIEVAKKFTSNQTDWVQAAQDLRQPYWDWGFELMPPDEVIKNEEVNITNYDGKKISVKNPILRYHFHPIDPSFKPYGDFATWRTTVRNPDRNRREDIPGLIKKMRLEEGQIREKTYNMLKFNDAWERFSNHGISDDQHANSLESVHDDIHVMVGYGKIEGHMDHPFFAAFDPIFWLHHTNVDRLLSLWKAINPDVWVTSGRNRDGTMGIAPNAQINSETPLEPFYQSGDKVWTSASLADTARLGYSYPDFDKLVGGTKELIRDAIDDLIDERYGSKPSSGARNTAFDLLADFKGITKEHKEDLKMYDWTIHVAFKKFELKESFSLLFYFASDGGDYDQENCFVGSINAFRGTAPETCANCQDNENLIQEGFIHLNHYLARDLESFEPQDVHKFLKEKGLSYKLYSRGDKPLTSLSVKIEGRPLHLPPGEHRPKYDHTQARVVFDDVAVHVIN
Description: Inhibition of mushroom tyrosinase after 30 mins by spectrophotometric analysis

In general, pIC50 refers to the IC50 on a negative log10 scale, so that one unit is a factor of ten. For the molecule `O=C1O[C@H]([C@@H](O)CO)C(O)=C1O` [ASCORBIC ACID], the negative logarithm of the IC50 (pIC50) in [1] is 4.28.

One may read the pEC50 as the EC50 on a negative log10 scale, so that one unit is a factor of ten. A word on the CC50: it is the concentration giving 50% cytotoxicity. A low value points to greater toxicity to the cells. Take `O=CN1CCc2cc3c(c4c2[C@H]1Cc1ccccc1-4)OCO3`: the result (in series [2]; in the series filed under Homo sapiens [10]; in the series listed under Homo sapiens [11]; in the series listed under Homo sapiens [12]; in the series listed under Homo sapiens [13]; in the series filed under Homo sapiens [14]) was Active. For the same molecule, at Tyrosinase [3], the negative logarithm of the EC50 (pEC50) is 4.05. The cytotoxic concentration (CC50) at 48 h in [4] was determined as 735 µM; in series [5], 355 µM; in series [6] it was 325 µM. Further, the viability at 48 h, 10 µM in [7] was 90%. The Activity entry in series [8] is recorded as “Toxic”; in series [9] it was “Toxic”; in [15], “Non-toxic”; in the series on Fibroblast [17], “Non-toxic”; in [18], “Non-toxic”; with Fibroblast [19], “Non-toxic”. Also, the viability at 48 h, 100 µM in series [16] is 70%. Besides, the OD in series [20] worked out at 0.56. The pIC50 against Tyrosinase [21] was 4.13; in [1], 3.92.

For `COc1ccc(O)c(C(C)(C)C)c1.COc1ccc(O)cc1C(C)(C)C`, the OD in series [20] is 1.28.
